The values below come from PubChem BioAssay AID1963852 (Molecular Pharmacology Branch, DTP, NCI, 2024).

In general, viability, T/C refers to the ratio of treated to control. For orientation: IC50 means the concentration at which inhibition is half-maximal.

Molecules are shown by their SMILES. Where “and” joins values, the source holds several entries; their conditions need not be identical. Equal values may be shown once. Where only a bound is given, the exact number is not on record here.

For the assay, the system named is 282377-053-R-J1-PDC complex spheroid viability. The assay can be described thus: Anticancer human tumor 282377-053-R-J1-PDC patient-derived colon adenocarcinoma cell line growth inhibition [POLQ]. As to conditions: for viability, T/C: stronger effect = lower value. As for the experimental part: Multicellular complex tumor spheroid response to Polymerase (POL) inhibitors (novobiocin, ART-558, RP6685) in combination with a variety of drugs and investigational agents in selected tumor cell lines
The POL inhibitors (novobiocin, ART-558, and RP6685) were evaluated both individually and in combination with standard of care and investigational anticancer small molecules within a complex spheroid model of solid tumors. . Complex spheroids include a stromal component modeled by human endothelial cells (HUVEC) and fibroblasts modeled by human mesenchymal stem cells (MSCs). The concentration ranges selected for each drug and investigational agent were based upon clinically achievable concentrations if the clinical Cmax of the agent was known.
Compounds. The drugs and investigational agents: novobiocin (NSC847541), ART-558 (NSC835418), RP-6685 (NSC848927), peposertib (NSC802822), ceralasertib (NSC780249), elimusertib (NSC800525), camonsertib (NSC841442), AZD-1390 (NSC803789), olaparib (NSC753686), talazoparib (NSC767125), rucaparib (NSC756644), sotorasib (NSC818433), MRTX-1133 (NSC836407), SN-38 (NSC673596), topotecan (NSC609699), epotoside (NSC141540), doxorubicin (NSC123127), gemcitabine (NSC613327), 5-fluorouracil (NSC19893), paclitaxel (NSC125973), vemurafenib (NSC761431), MSA-2 (NSC828583), SN-011 (NSC837082), adavosertib (NSC754352), prexasertib (NSC758257), carboplatin (NSC241240) and oxaliplatin (NSC266046), were obtained from the National Cancer Institute (NCI) Developmental Therapeutics Program Chemical Repository (21). The FDA-approved anticancer drug set is available from the Developmental Therapeutics Program at https://dtp.cancer.gov/organization/dscb/obtaining/. […] The stock solutions were prepared in dimethyl sulfoxide (DMSO, Sigma-Aldrich, St. Louis, MO, cat. D2650), except for the platinum compounds which were prepared in saline (Quality Biological, Gaithersburg, MD, cat. 114-055-101), at 800-fold the tested concentration and stored at -70 degrees C prior to their use. All drugs and investigational agents were tested over a range starting from a high concentration at or near the clinical Cmax and decreasing in half-log increments. If the clinical Cmax for an agent had not been determined, the highest concentration tested was 10 microM, except for SN-38, which was tested at a high concentration of 1 microM.
Cell Culture. All cells were maintained in an incubator at 37 degrees C and 5% CO2 with 95% humidity. The PDC lines were cultured according to standard operating procedures established by the NCI PDMR (https://pdmr.cancer.gov). Table 3 of the manuscript, lists the cell lines along with the number of the three cell types plated to form the mct-spheroids and media for tumor cell growth. After thawing, all PDC lines, except 997537-175-T-J1-PDC and 415267-285-R-J2-PDC, were cultured in Matrigel-coated flasks prepared with a working solution of 1X Ham's F-12 nutrient mix, without supplementation (Thermo Fisher Scientific, cat. 11765054), 100 U/mL penicillin-streptomycin (Thermo Fisher Scientific, cat. 15140122), and 2.5% Matrigel (Corning Inc., Corning, NY, cat. 354248) for the first three passages. The two PDC lines 997537-175-T-J1-PDC and 415267-285-R-J2-PDC were cultured on uncoated flasks. The 857933-349-R-J2-PDC line was cultured in 6C/Colon 1B media containing advanced DMEM/F-12 (Thermo Fisher Scientific, cat. 12634028), 10 mM HEPES (Thermo Fisher Scientific, cat. 15630080), 1X GlutaMAX supplement (Thermo Fisher Scientific, cat. 35050061), 0.1 mg/mL primocin (InvivoGen, San Diego, CA, cat. ant-pm-2), 10% defined fetal bovine serum, heat inactivated (HyClone Laboratories Inc., Logan, UT, cat. SH30070.03HI), 50% L-WRN conditioned media (ATCC, cat. CRL-3276), 1.25 mM N-Acetyl-L-cysteine (Sigma-Aldrich, cat. A9165), 10 mM nicotinamide (Sigma-Aldrich, cat. N0636), 1X B-27 supplement (Thermo Fisher Scientific, cat. 17504044), 1X N-2 supplement (Thermo Fisher Scientific, cat. […]

Where [1] appears, read: curve of first compound, second compound 0.0316 µM.
[2] abbreviates: curve of first compound, second compound 0.1 µM.
Where [3] appears, read: curve of first compound, second compound 0.316 µM.
[4] abbreviates: curve of first compound, second compound 1 µM.
Setting [5] is: curve of first compound, second compound 3.16 µM.
Setting [6] is: curve of first compound, second compound 10 µM.
The mark [7] stands for this setting: second compound 0.0316 µM, first compound 0.0316 µM.
The mark [8] stands for this setting: second compound 0.0316 µM, first compound 0.1 µM.
[9] abbreviates: second compound 0.0316 µM, first compound 0.316 µM.
[10] abbreviates: second compound 0.0316 µM, first compound 1 µM.
Where [11] appears, read: second compound 0.0316 µM, first compound 3.16 µM.
[12] abbreviates: second compound 0.0316 µM, first compound 10 µM.
The mark [13] stands for this setting: second compound 0.1 µM, first compound 0.0316 µM.
The mark [14] stands for this setting: second compound 0.1 µM, first compound 0.1 µM.
Where [15] appears, read: second compound 0.1 µM, first compound 0.316 µM.
Setting [16] is: second compound 0.1 µM, first compound 1 µM.
[17] abbreviates: second compound 0.1 µM, first compound 3.16 µM.
The mark [18] stands for this setting: second compound 0.1 µM, first compound 10 µM.
Where [19] appears, read: second compound 0.316 µM, first compound 0.0316 µM.
Setting [20] is: second compound 0.316 µM, first compound 0.1 µM.
The mark [21] stands for this setting: second compound 0.316 µM, first compound 0.316 µM.
Setting [22] is: second compound 0.316 µM, first compound 1 µM.
Where [23] appears, read: second compound 0.316 µM, first compound 3.16 µM.
[24] abbreviates: second compound 0.316 µM, first compound 10 µM.
Where [25] appears, read: second compound 1 µM, first compound 0.0316 µM.
Setting [26] is: second compound 1 µM, first compound 0.1 µM.
The mark [27] stands for this setting: second compound 1 µM, first compound 0.316 µM.
Where [28] appears, read: second compound 1 µM, first compound 1 µM.
Setting [29] is: second compound 1 µM, first compound 3.16 µM.
The mark [30] stands for this setting: second compound 1 µM, first compound 10 µM.
Where [31] appears, read: second compound 3.16 µM, first compound 0.0316 µM.
Where [32] appears, read: second compound 3.16 µM, first compound 0.1 µM.
Where [33] appears, read: second compound 3.16 µM, first compound 0.316 µM.
Setting [34] is: second compound 3.16 µM, first compound 1 µM.
Setting [35] is: second compound 3.16 µM, first compound 3.16 µM.
[36] abbreviates: second compound 3.16 µM, first compound 10 µM.
[37] abbreviates: second compound 10 µM, first compound 0.0316 µM.
Where [38] appears, read: second compound 10 µM, first compound 0.1 µM.
[39] abbreviates: second compound 10 µM, first compound 0.316 µM.
Where [40] appears, read: second compound 10 µM, first compound 1 µM.
[41] abbreviates: second compound 10 µM, first compound 3.16 µM.
Setting [42] is: second compound 10 µM, first compound 10 µM.
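Further: spheroids exposed to compounds for seven days.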

Take `CC1COCCN1c1cc(C2(S(C)(=N)=O)CC2)nc(-c2ccnc3[nH]ccc23)n1` (centres undefined): the viability, T/C is 93% and 90.1% and 105% (compound 0.0316 µM); 95.7% and 96.4% and 89.9% (compound 0.1 µM); 86.7% and 94.9% and 95.5% (compound 0.316 µM); 75.4% and 89.4% and 93.3% (compound 1 µM); 57.4% and 74.8% and 62% (compound 3.16 µM); 46.7% and 55.4% and 47% (compound 10 µM). Also, the IC50 (curve of compound) was 7.04 µM and > 10 µM and 7.94 µM.

As for `O=c1[nH]cc(F)c(=O)[nH]1` + Nc1ccc(C#CCN(C(=O)Cc2ncc(C(F)(F)F)cc2C(F)(F)F)c2ccc(F)cc2)nn1, the IC50 runs as follows: under setting [1], more than 10 µM; under setting [2], more than 10 µM; under setting [3], more than 10 µM; under setting [4], more than 10 µM; under setting [5], more than 10 µM; under setting [6], more than 10 µM. Moreover, the viability, T/C reads like this: under setting [7], 115%; under setting [8], 107%; under setting [9], 142%; under setting [10], 117%; under setting [11], 89.9%; under setting [12], 95.1%. The viability, T/C runs as follows: under setting [13], 107%; under setting [14], 126%; under setting [15], 109%; under setting [16], 91.6%; under setting [17], 95.1%; under setting [18], 94.5%. The viability, T/C is 118% under setting [19]; 98% under setting [20]; 111% under setting [21]; 99.1% under setting [22]; 87.5% under setting [23]; 90.7% under setting [24]. The viability, T/C is, setting by setting: under setting [25], 106%; under setting [26], 103%; under setting [27], 116%; under setting [28], 108%; under setting [29], 112%; under setting [30], 95.1%. Further, the viability, T/C is 119% under setting [31]; 122% under setting [32]; 121% under setting [33]; 118% under setting [34]; 98.8% under setting [35]; 85.9% under setting [36]. Further, the viability, T/C by setting is: under setting [37], 123%; under setting [38], 128%; under setting [39], 124%; under setting [40], 134%; under setting [41], 90%; under setting [42], 111%.

For `CC(C)n1c(=O)n(C)c2cnc3cc(F)c(-c4ccc(OCCCN5CCCCC5)nc4)cc3c21` + Cc1cccc(N(C)C(=O)C2C(O)CCN2c2nc(C)cc(C(F)(F)F)c2C#N)c1, the 50% inhibitory concentration (IC50) is more than 10 µM under setting [1]; more than 10 µM under setting [2]; more than 10 µM under setting [3]; more than 10 µM under setting [4]; more than 10 µM under setting [5]; more than 10 µM under setting [6]. Moreover, the viability, T/C by setting is: under setting [7], 97.8%; under setting [8], 129%; under setting [9], 99%; under setting [10], 114%; under setting [11], 109%; under setting [12], 88.3%. Also, the viability, T/C is 95.2% under setting [13]; 123% under setting [14]; 98.2% under setting [15]; 97.5% under setting [16]; 129% under setting [17]; 84.8% under setting [18]. Further, the viability, T/C is 99.6% under setting [19]; 92.3% under setting [20]; 96% under setting [21]; 89.5% under setting [22]; 99.1% under setting [23]; 73.8% under setting [24]. Moreover, the viability, T/C was 105% under setting [25]; 99.8% under setting [26]; 97.7% under setting [27]; 105% under setting [28]; 106% under setting [29]; 93.2% under setting [30]. Further, the viability, T/C was 81.5% under setting [31]; 102% under setting [32]; 96.4% under setting [33]; 98.9% under setting [34]; 97.1% under setting [35]; 92.7% under setting [36]. In addition, the viability, T/C reads like this: under setting [37], 93.2%; under setting [38], 87.3%; under setting [39], 110%; under setting [40], 81.9%; under setting [41], 120%; under setting [42], 82.1%.

On to `C=CC(=O)N1CCN(c2nc(=O)n(-c3c(C)ccnc3C(C)C)c3nc(-c4c(O)cccc4F)c(F)cc23)C(C)C1` (centres undefined), for which the viability, T/C was 90.8% and 111% and 101% (compound 0.0316 µM); 96% and 93.3% and 101% (compound 0.1 µM); 82.7% and 111% and 107% (compound 0.316 µM); 82.8% and 111% and 110% (compound 1 µM); 94% and 105% and 101% (compound 3.16 µM); 78.2% and 87% and 86.5% (compound 10 µM). The IC50 (curve of compound) was more than 10 µM.

Take `CCc1c2c(nc3ccc(O)cc13)-c1cc3c(c(=O)n1C2)COC(=O)[C@]3(O)CC`: the viability, T/C is 106% and 102% and 122% (compound 0.00316 µM); 69.4% and 103% and 64.5% (compound 0.01 µM); 63.4% and 83.3% and 72.2% (compound 0.0316 µM); 44.6% and 68.1% and 50.9% (compound 0.1 µM); 31.1% and 69.5% and 42% (compound 0.316 µM); 20% and 66.9% and 19.1% (compound 1 µM).
